Source: PMC7531004, “Discovery of gramicidin A analogues with altered activities by multidimensional screening of a one-bead-one-compound library” (Nature Communications, 2020)
Where a SMILES comes first, the peptide text is derived from it. [ ]: non-standard residue; d: D form. The star is where a group is joined. NHCH2CH2OH = OCCN*; For = O=C*

Experiments:
[1] = tested on: Streptococcus pyogenes SSI-9; assay: Antibacterial activity assay of bead-derived peptides (three concentrations); assay type: cell-based; set-up: key: +++: inhibition by the 640-fold diluted peptide solution; ++: inhibition by the 160-fold diluted solution; +: inhibition by the 40-fold diluted solution; -: no inhibition; settings: S. pyogenes, bead-derived peptide solution, three concentrations
Outline: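 Library peptide stock applied undiluted, 4-fold and 16-fold diluted in DMSO to S. pyogenes SSI-9 (2 × 10^5 CFU) in cation-adjusted Mueller Hinton broth with 5% laked horse blood. After 18 h at 37 °C, growth judged by visible cell precipitation.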

[2] = tested on: P388 mouse leukemia cells; settings: 92 h
Outline: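 P388 cells at 1 × 10^4 cells/mL (final) were exposed to library peptides (stocks diluted 250-fold in RPMI1640/10% FBS) for 92 h at 37 °C, 5% CO2. Viable cells were counted by WST-1/1-methoxy PMS (4 h), absorbance 415 nm, and expressed as cell viability (%).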

[3] = H+/Na+ transport assay of bead-derived peptides (one-point); assay type: biochemical; set-up: key: relative activity; mean of two control wells = 1.00; settings: bead-derived peptide solution, EYPC/EYPG LUVs;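 note: relative to parent gramicidin A activity set to 1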
Outline: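 H+/Na+ transport is monitored through pyranine fluorescence in freshly extruded LUVs after a 30-min room-temperature vortex with each library peptide at a single concentration. Signals are normalized to detergent (Triton X-100) and untreated controls.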

Compound	antibacterial activity [1]	cell viability/% [2] [%]	H+/Na+ transport activity normalized against the value of 1 (1.00) [3]
CC(C)C[C@@H](NC(=O)[C@H](C)NC(=O)[C@H](NC(=O)[C@H](C)NC(=O)CNC(=O)[C@@H](NC=O)C(C)C)C(C)C)C(=O)N[C@H](C(=O)N[C@H](CC(C)C)C(=O)N[C@@H](Cc1c[nH]c2ccccc12)C(=O)N[C@@H](C(=O)N[C@@H](Cc1c[nH]c2ccccc12)C(=O)N[C@H](CC(C)C)C(=O)N[C@@H](Cc1c[nH]c2ccccc12)C(=O)N[C@@H](C(=O)N[C@@H](Cc1c[nH]c2ccccc12)C(=O)NCCO)C(C)C)[C@H](C)O)C(C)C [compound 4232] (For-VGA[dV]A[dL]V[dL]W[dT]W[dL]W[dV]W-NHCH2CH2OH)	-	93.0	1.05
CC(C)C[C@@H](NC(=O)[C@H](Cc1c[nH]c2ccccc12)NC(=O)[C@@H](CC(C)C)NC(=O)[C@@H](NC(=O)[C@H](NC(=O)[C@H](C)NC(=O)[C@H](NC(=O)[C@H](C)NC(=O)CNC(=O)[C@@H](NC=O)C(C)C)[C@H](C)O)C(C)C)C(C)C)C(=O)N[C@@H](Cc1c[nH]c2ccccc12)C(=O)N[C@H](CC(C)C)C(=O)N[C@@H](Cc1c[nH]c2ccccc12)C(=O)N[C@@H](C(=O)N[C@@H](Cc1c[nH]c2ccccc12)C(=O)NCCO)C(C)C [compound 4236] (For-VGA[dT]A[dV]V[dL]W[dL]W[dL]W[dV]W-NHCH2CH2OH)	-	93.0	1.43
CC(C)C[C@@H](NC(=O)[C@H](C)NC(=O)CNC(=O)[C@@H](NC=O)C(C)C)C(=O)N[C@@H](C)C(=O)N[C@@H](C(=O)N[C@H](C(=O)N[C@@H](C(=O)N[C@@H](Cc1c[nH]c2ccccc12)C(=O)N[C@H](CC(C)C)C(=O)N[C@@H](Cc1c[nH]c2ccccc12)C(=O)N[C@@H](C(=O)N[C@@H](Cc1c[nH]c2ccccc12)C(=O)N[C@H](CC(C)C)C(=O)N[C@@H](Cc1c[nH]c2ccccc12)C(=O)NCCO)C(C)C)[C@H](C)O)C(C)C)C(C)C [compound 4279] (For-VGA[dL]A[dV]V[dT]W[dL]W[dV]W[dL]W-NHCH2CH2OH)	-	98.8	1.05
CC(C)C[C@@H](NC(=O)[C@H](C)NC(=O)CNC(=O)[C@@H](NC=O)C(C)C)C(=O)N[C@@H](C)C(=O)N[C@H](CC(C)C)C(=O)N[C@H](C(=O)N[C@@H](C(=O)N[C@@H](Cc1c[nH]c2ccccc12)C(=O)N[C@@H](C(=O)N[C@@H](Cc1c[nH]c2ccccc12)C(=O)N[C@H](CC(C)C)C(=O)N[C@@H](Cc1c[nH]c2ccccc12)C(=O)N[C@@H](C(=O)N[C@@H](Cc1c[nH]c2ccccc12)C(=O)NCCO)C(C)C)C(C)C)C(C)C)C(C)C [compound 4297] (For-VGA[dL]A[dL]V[dV]W[dV]W[dL]W[dV]W-NHCH2CH2OH)	+	2.3	1.29
CC(C)C[C@@H](NC(=O)[C@H](C)NC(=O)CNC(=O)[C@@H](NC=O)C(C)C)C(=O)N[C@@H](C)C(=O)N[C@H](CC(C)C)C(=O)N[C@H](C(=O)N[C@H](CC(C)C)C(=O)N[C@@H](Cc1c[nH]c2ccccc12)C(=O)N[C@H](CC(C)C)C(=O)N[C@@H](Cc1c[nH]c2ccccc12)C(=O)N[C@@H](C(=O)N[C@@H](Cc1c[nH]c2ccccc12)C(=O)N[C@@H](C(=O)N[C@@H](Cc1c[nH]c2ccccc12)C(=O)NCCO)C(C)C)C(C)C)C(C)C [compound 4313] (For-VGA[dL]A[dL]V[dL]W[dL]W[dV]W[dV]W-NHCH2CH2OH)	+	3.2	1.21
CC(C)C[C@@H](NC(=O)[C@H](Cc1c[nH]c2ccccc12)NC(=O)[C@@H](CC(C)C)NC(=O)[C@H](Cc1c[nH]c2ccccc12)NC(=O)[C@H](NC(=O)[C@H](Cc1c[nH]c2ccccc12)NC(=O)[C@@H](CC(C)C)NC(=O)[C@@H](NC(=O)[C@H](NC(=O)[C@H](C)NC(=O)[C@H](NC(=O)[C@H](C)NC(=O)CNC(=O)[C@@H](NC=O)C(C)C)C(C)C)C(C)C)C(C)C)C(C)C)C(=O)N[C@@H](Cc1c[nH]c2ccccc12)C(=O)NCCO [compound 4329] (For-VGA[dV]A[dV]V[dL]W[dV]W[dL]W[dL]W-NHCH2CH2OH)	-	14.3	1.18
CC(C)C[C@@H](NC(=O)[C@H](C)NC(=O)CNC(=O)[C@@H](NC=O)C(C)C)C(=O)N[C@@H](C)C(=O)N[C@@H](C(=O)N[C@H](C(=O)N[C@@H](C(=O)N[C@@H](Cc1c[nH]c2ccccc12)C(=O)N[C@@H](C(=O)N[C@@H](Cc1c[nH]c2ccccc12)C(=O)N[C@H](CC(C)C)C(=O)N[C@@H](Cc1c[nH]c2ccccc12)C(=O)N[C@@H](C(=O)N[C@@H](Cc1c[nH]c2ccccc12)C(=O)NCCO)C(C)C)C(C)C)[C@H](C)O)C(C)C)C(C)C [compound 4357] (For-VGA[dL]A[dV]V[dT]W[dV]W[dL]W[dV]W-NHCH2CH2OH)	-	100.0	1.01
CC(C)C[C@@H](NC(=O)[C@H](C)NC(=O)[C@H](NC(=O)[C@H](C)NC(=O)CNC(=O)[C@@H](NC=O)C(C)C)C(C)C)C(=O)N[C@H](C(=O)N[C@@H](C(=O)N[C@@H](Cc1c[nH]c2ccccc12)C(=O)N[C@@H](C(=O)N[C@@H](Cc1c[nH]c2ccccc12)C(=O)N[C@@H](C(=O)N[C@@H](Cc1c[nH]c2ccccc12)C(=O)N[C@H](CC(C)C)C(=O)N[C@@H](Cc1c[nH]c2ccccc12)C(=O)NCCO)C(C)C)C(C)C)[C@H](C)O)C(C)C [compound 4395] (For-VGA[dV]A[dL]V[dT]W[dV]W[dV]W[dL]W-NHCH2CH2OH)	-	100.0	1.07
CC(C)C[C@@H](NC(=O)[C@H](C)NC(=O)CNC(=O)[C@@H](NC=O)C(C)C)C(=O)N[C@@H](C)C(=O)N[C@H](CC(C)C)C(=O)N[C@H](C(=O)N[C@@H](C(=O)N[C@@H](Cc1c[nH]c2ccccc12)C(=O)N[C@@H](C(=O)N[C@@H](Cc1c[nH]c2ccccc12)C(=O)N[C@H](CC(C)C)C(=O)N[C@@H](Cc1c[nH]c2ccccc12)C(=O)N[C@H](CC(C)C)C(=O)N[C@@H](Cc1c[nH]c2ccccc12)C(=O)NCCO)[C@H](C)O)[C@H](C)O)C(C)C [compound 4421] (For-VGA[dL]A[dL]V[dT]W[dT]W[dL]W[dL]W-NHCH2CH2OH)	-	100.0	1.12
CC(C)C[C@@H](NC(=O)[C@H](C)NC(=O)CNC(=O)[C@@H](NC=O)C(C)C)C(=O)N[C@@H](C)C(=O)N[C@@H](C(=O)N[C@H](C(=O)N[C@@H](C(=O)N[C@@H](Cc1c[nH]c2ccccc12)C(=O)N[C@@H](C(=O)N[C@@H](Cc1c[nH]c2ccccc12)C(=O)N[C@H](CC(C)C)C(=O)N[C@@H](Cc1c[nH]c2ccccc12)C(=O)N[C@@H](C(=O)N[C@@H](Cc1c[nH]c2ccccc12)C(=O)NCCO)C(C)C)C(C)C)[C@H](C)O)C(C)C)C(C)C [compound 4427] (For-VGA[dL]A[dV]V[dT]W[dV]W[dL]W[dV]W-NHCH2CH2OH)	-	100.0	1.18
CC(C)C[C@@H](NC(=O)[C@H](Cc1c[nH]c2ccccc12)NC(=O)[C@H](NC(=O)[C@H](Cc1c[nH]c2ccccc12)NC(=O)[C@@H](CC(C)C)NC(=O)[C@H](Cc1c[nH]c2ccccc12)NC(=O)[C@@H](CC(C)C)NC(=O)[C@@H](NC(=O)[C@H](NC(=O)[C@H](C)NC(=O)[C@H](NC(=O)[C@H](C)NC(=O)CNC(=O)[C@@H](NC=O)C(C)C)[C@H](C)O)C(C)C)C(C)C)C(C)C)C(=O)N[C@@H](Cc1c[nH]c2ccccc12)C(=O)NCCO [compound 4440] (For-VGA[dT]A[dV]V[dL]W[dL]W[dV]W[dL]W-NHCH2CH2OH)	-	85.6	1.15
CC(C)C[C@@H](NC(=O)[C@H](C)NC(=O)[C@H](NC(=O)[C@H](C)NC(=O)CNC(=O)[C@@H](NC=O)C(C)C)C(C)C)C(=O)N[C@H](C(=O)N[C@H](CC(C)C)C(=O)N[C@@H](Cc1c[nH]c2ccccc12)C(=O)N[C@@H](C(=O)N[C@@H](Cc1c[nH]c2ccccc12)C(=O)N[C@@H](C(=O)N[C@@H](Cc1c[nH]c2ccccc12)C(=O)N[C@@H](C(=O)N[C@@H](Cc1c[nH]c2ccccc12)C(=O)NCCO)C(C)C)C(C)C)C(C)C)C(C)C [compound 4477] (For-VGA[dV]A[dL]V[dL]W[dV]W[dV]W[dV]W-NHCH2CH2OH)	+	6.3	1.38
CC(C)C[C@@H](NC(=O)[C@H](C)NC(=O)CNC(=O)[C@@H](NC=O)C(C)C)C(=O)N[C@@H](C)C(=O)N[C@@H](C(=O)N[C@H](C(=O)N[C@@H](C(=O)N[C@@H](Cc1c[nH]c2ccccc12)C(=O)N[C@@H](C(=O)N[C@@H](Cc1c[nH]c2ccccc12)C(=O)N[C@@H](C(=O)N[C@@H](Cc1c[nH]c2ccccc12)C(=O)N[C@H](CC(C)C)C(=O)N[C@@H](Cc1c[nH]c2ccccc12)C(=O)NCCO)C(C)C)C(C)C)[C@H](C)O)C(C)C)C(C)C [compound 4493] (For-VGA[dL]A[dV]V[dT]W[dV]W[dV]W[dL]W-NHCH2CH2OH)	-	100.0	1.19
